In US9629834B2, “Medicinal composition for inhibiting formation and/or enlargement of cerebral aneurysm or shrinking same” (KYOTO UNIVERSITY, priority 2013, dated 2017):

How the values were obtained:
Type in all cases: in vivo, SD rat
[1] = Influences on blood pressure and heart rate of rats (tail-cuff method); details: 0.03 or 0.1 mg/kg oral once a day, Day 1 to Day 27; measured Day 28, without anesthesia; FIG. 7A and FIG. 7B
Method: Immediately before dissecting rats 28 days after surgery (Day 28) as described in the section (1) of Example 1, blood pressure and heart rate of each of rats were measured noninvasively without anesthesia by a tail-cuff method. The measurement was conducted by using a noninvasive blood pressure measuring device for rats and mice BP-98A (Softron). The measurement was conducted three times per rat, and the mean value was used for calculating the mean value of all rats in each of the groups. No influence of the administration of Compound 1 on any blood pressure (SBP: systolic blood pressure, MBP: mean blood pressure, DBP: diastolic blood pressure) or heart rate was observed.

cerebral aneurysm model [2] = assay: Inhibitory effect on enlargement of cerebral aneurysm in cerebral aneurysm model; details: 0.1 mg/5 mL suspension, forced oral, once a day from Day 7; measured Day 7, Day 28, Day 49; FIG. 8 and FIG. 9
Method: A rat model of cerebral aneurysm was prepared according to the method disclosed on the literature by Hashimoto et al. (Surgical Neurology 1978, Vol. 10, p. 3-8). Namely, 50 mg/kg of pentobarbital was administrated intraperitoneally to a 7-week-old male SD rat, and the left common carotid artery and the left renal artery were ligated by using 10-0 nylon thread under anesthesia (this is referred to as the surgery for inducing cerebral aneurysm). From the day after surgery (Day 1), the rat was reared with being fed a high-salt diet. During a rearing period, the rat was given free access to water. The cerebral aneurysm model was reared with being fed a high-salt diet for 7 days from the day of the surgery so that the model formed cerebral aneurysm. 7 Days after surgery (Week 1, Day 7), the diet for the cerebral aneurysm model was replaced with a normal diet, and forced oral administration of the suspension of Compound 1 at a concentration of 0.1 mg/5 mL to the cerebral aneurysm model was conducted once a day. […] 7 Days after surgery (Week 1, Day 7), 28 days after surgery (Week 4, Day 28), and 49 days after surgery (Week 7, Day 49), the right olfactory artery/anterior cerebral artery bifurcation containing cerebral aneurysm was extirpated and the size of cerebral aneurysm (the maximum diameter and the mean diameter) was measured by similar procedures to Example 1.

MCP-1 = assay: Suppression of expression of MCP-1 at cerebral artery bifurcation (immunostaining); details: vs group without drug, FIG. 4
cerebral aneurysm model [3] = assay: Inhibitory effect on formation of cerebral aneurysm in cerebral aneurysm model (EvG staining, size of aneurysm); details: 0.03 mg/5 mL or 0.1 mg/5 mL suspension, 5 mL/kg, forced oral, once a day, Day 1 to Day 27; Day 28; FIG. 5
Method: A rat model of cerebral aneurysm was prepared according to the method disclosed on the literature by Hashimoto et al. (Surgical Neurology 1978, Vol. 10, p. 3-8). Namely, 50 mg/kg of pentobarbital was administrated intraperitoneally to a 7-week-old male SD rat, and the left common carotid artery and the left renal artery were ligated by using 10-0 nylon thread under anesthesia (this is referred to as the surgery for inducing cerebral aneurysm). From the day after surgery (Day 1), the rat was reared with being fed a high-salt diet. During a rearing period, the rat was given free access to water. Forced oral administration of 0.03 mg/5 mL or 0.1 mg/5 mL of the suspension of Compound 1 to the cerebral aneurysm model was conducted once a day at a dose of 5 mL/kg from the day after surgery, i.e., 1 day after surgery (Day 1) to 27 days after surgery (Day 27). It should be noted that forced oral administration of the 0.5% MC solution (0 mg/5 mL of the suspension of Compound 1) to the cerebral aneurysm model was conducted once a day at a dose of 5 mL/kg. The group of these rats was defined as a vehicle group. 28 Days after surgery (Day 28), the right olfactory artery/anterior cerebral artery bifurcation containing cerebral aneurysm was extirpated and was fixed with 4% paraformaldehyde, and then the solution was replaced with a 30% sucrose solution, and thereafter, the extirpated bifurcation was frozen to prepare a specimen of a frozen section having a thickness of 5 μm, by similar procedures to the steps 1) and 2) of the method of Reference Example 2. This specimen was subjected to EvG staining and the formation of cerebral aneurysm was confirmed. The size of cerebral aneurysm was measured and evaluation was conducted. The maximum diameter (Maximum) represents the maximum distance between internal elastic lamina disruption sites observed by EvG staining, the height “Height” represents the maximum value of height defined as the length of the perpendicular line drawn from the line connecting the two ends of internal elastic lamina, and the mean diameter “Mean” represents the mean value of the maximum diameter and the height. This evaluation was conducted on all the rats (8 or 9 rats) of each of the groups, and the mean value of each of the groups was calculated. The administration of 0.1 mg/5 mL of a suspension of Compound 2 to the cerebral aneurysm model was started on the day of the surgery (Day 0) at a dose of 5 mL/kg, and forced oral administration was conducted once a day until 26 days after surgery (Day 26). The size of cerebral aneurysm was measured by using the protocol of Example 1. […] The size of cerebral aneurysm was measured by using the protocol of Example 1. […] The size of cerebral aneurysm was measured by using the protocol of Example 1.

## C[C@H](Oc1ccc(-c2nc(-c3ccc4[nH]cnc4c3)no2)cc1C(F)(F)F)C(F)(F)F.Cl [Compound 1, 5-{5-[3-(trifluoromethyl)-4-{[(2S)-1,1,1-trifluoropropan-2-yl]oxy}phenyl]-1,2,4-oxadiazol-3-yl}-1H-benzimidazole hydrochloride]
[1]
  influence on blood pressure (SBP, MBP, DBP): No influence
  influence on heart rate: No influence
Cerebral aneurysm model [2]
  enlargement of cerebral aneurysm (maximum diameter and mean diameter): inhibited the enlargement of cerebral aneurysm
MCP-1; 0.03 mg/kg oral once a day
  expression of MCP-1 in cerebral aneurysm walls: suppressed as compared to the group without being administered a drug
MCP-1; 0.1 mg/kg oral once a day
  expression of MCP-1 in cerebral aneurysm walls: suppressed as compared to the group without being administered a drug
Cerebral aneurysm model [3]
  formation of cerebral aneurysm (size: Maximum, Height, Mean): inhibited the formation of cerebral aneurysm
